Reference: patent US20250003970A1, “FRET ENZYMATIC SUBSTRATE AND USES THEREOF IN LUNG CANCER” (URTESTE S.A., priority 2021, published 2025)
Where “and” joins values, the source holds several entries; their conditions need not be identical. Equal values may be shown once. Starred links: 1 amine or outer side, 2 acyl side, 3 side chain; linkers in the order of their positions; H or OH if unused. Non-standard residues stand in square brackets, D forms with d. No end group written: not given here. Benzoyl(5-NH,2-NO2) = O=C(c1cc(N[*:1])ccc1[N+](=O)[O-])[*:2]; 2Abz = Nc1ccccc1C(=O)O

Key:
Format in all cases: biochemical, human
[1] = test system: enzymatic activity specific to lung cancer in urine from a subject suffering from lung cancer; test: Absorbance measurement of substrate hydrolysis in urine from subjects with lung cancer; conditions: for absorbance (Results of absorbance analysis): 405 nm, 37° C., 60 minutes, pH 8.0, triplicate
Protocol: (§1) The activity of the novel compounds according to the invention was studied in a group of 20 subjects diagnosed with lung cancer using the representative compound according to the invention. […] The remaining compounds according to the invention are characterized by the analogous mechanism of action. For this purpose, the representative compound according to the invention, ABZ^1-Tyr^2-Ile^3-Phe^4-Arg^5-ANB^6-NH2, was dissolved in dimethyl sulfoxide (at a concentration of 0.5 mg/mL) and then 50 μL of the solution was mixed with 120 μL of a buffer (200 mM Tris-HCl, pH 8.0) and 80 μL of urine from a subject suffering from lung cancer. The measurement was performed on a 96-well plate designed for measuring absorbance and each sample was analysed in triplicate at the temperature of 37° C. The duration of the measurement was 60 minutes. During the measurement, the wavelength characteristic for the chromophore (ANB-NH2) being released was monitored at the wavelength 405 nm (range 380-430 nm).

[2] = test system: urine samples taken from healthy persons; test: Absorbance measurement of substrate hydrolysis in urine from healthy subjects; conditions: for absorbance (Results of absorbance analysis): healthy person, 405 nm, 37° C., 60 minutes, pH 8.0, triplicate
[3] = test system: urine samples from patients with diagnosed cancers; test: Selectivity of substrate cleavage in urine from patients with different cancers
Text: Arabic numerals indicate the numbers of given cancer types. The samples tested for each type of cancer were derived from 20 different patients for each of the tested cancers. The results are mean values for given cancer types.
as §1
Furthermore, the dependence of the cleavage selectivity of the substrate, i.e. the compound according to the invention, on the cancer being examined, was studied. […]

## ABZ-Tyr-Ile-Phe-Arg-ANB-NH2 ([2Abz]YIFR-{Benzoyl(5-NH,2-NO2)-NH2}) [chromogenic/fluorogenic FRET peptide substrate, ABZ = 2-aminobenzoic acid, ANB-NH2 = amide of 5-amino-2-nitrobenzoic acid]
[1]; all samples 1-50 from persons suffering from lung cancer
  cleavage of the substrate: underwent cleavage
[1]; samples 7 and 16 compared with samples 50 or 42 (FIG. 2)
  efficiency of cleavage of the substrate: less efficiently
[1]; urine sample 7, lung cancer
  absorbance (Results of absorbance analysis): 0.0015 and 0.0017 and 0.002
[1]; urine sample 8, lung cancer
  absorbance (Results of absorbance analysis): 0.0032 and 0.0031 and 0.0036
[1]; urine sample 9, lung cancer
  absorbance (Results of absorbance analysis): 0.026 and 0.0294 and 0.025
[1]; urine sample 10, lung cancer
  absorbance (Results of absorbance analysis): 0.0403 and 0.0738 and 0.056
[1]; urine sample 11, lung cancer
  absorbance (Results of absorbance analysis): 0.0195 and 0.019 and 0.0188
[1]; urine sample 12, lung cancer
  absorbance (Results of absorbance analysis): 0.0056 and 0.0068 and 0.0062
[1]; urine sample 13, lung cancer
  absorbance (Results of absorbance analysis): 0.063 and 0.0633 and 0.0632
[1]; urine sample 14, lung cancer
  absorbance (Results of absorbance analysis): 0.018 and 0.0176 and 0.0179
[1]; urine sample 15, lung cancer
  absorbance (Results of absorbance analysis): 0.015 and 0.0139 and 0.0146
[1]; urine sample 16, lung cancer
  absorbance (Results of absorbance analysis): 0.0015 and 0.0016 and 0.002
[1]; urine sample 17, lung cancer
  absorbance (Results of absorbance analysis): 0.0096 and 0.0095 and 0.0102
[1]; urine sample 18, lung cancer
  absorbance (Results of absorbance analysis): 0.0104 and 0.019 and 0.0156
[1]; urine sample 20, lung cancer
  absorbance (Results of absorbance analysis): 0.0443 and 0.0299 and 0.036
[1]; urine sample 21, lung cancer
  absorbance (Results of absorbance analysis): 0.0215 and 0.022 and 0.0256
[1]; urine sample 22, lung cancer
  absorbance (Results of absorbance analysis): 0.0301 and 0.0349 and 0.035
[1]; urine sample 23, lung cancer
  absorbance (Results of absorbance analysis): 0.0732 and 0.0483 and 0.065
[1]; urine sample 25, lung cancer
  absorbance (Results of absorbance analysis): 0.0703 and 0.0549 and 0.062
[1]; urine sample 26, lung cancer
  absorbance (Results of absorbance analysis): 0.149 and 0.1049 and 0.103
[1]; urine sample 27, lung cancer
  absorbance (Results of absorbance analysis): 0.1005 and 0.1078 and 0.106
[1]; urine sample 28, lung cancer
  absorbance (Results of absorbance analysis): 0.0613 and 0.0765 and 0.072
[1]; urine sample 29, lung cancer
  absorbance (Results of absorbance analysis): 0.0203 and 0.0218 and 0.025
[1]; urine sample 30, lung cancer
  absorbance (Results of absorbance analysis): 0.1595 and 0.1543 and 0.156
[1]; urine sample 31, lung cancer
  absorbance (Results of absorbance analysis): 0.0346 and 0.0306 and 0.036
[1]; urine sample 32, lung cancer
  absorbance (Results of absorbance analysis): 0.01457 and 0.0186 and 0.0159
[1]; urine sample 33, lung cancer
  absorbance (Results of absorbance analysis): 0.07 and 0.0625 and 0.0687
[1]; urine sample 34, lung cancer
  absorbance (Results of absorbance analysis): 0.0421 and 0.0243 and 0.036
[1]; urine sample 35, lung cancer
  absorbance (Results of absorbance analysis): 0.0402 and 0.0714 and 0.0632
[1]; urine sample 36, lung cancer
  absorbance (Results of absorbance analysis): 0.0046 and 0.0057 and 0.00498
[1]; urine sample 37, lung cancer
  absorbance (Results of absorbance analysis): 0.058 and 0.065 and 0.062
[1]; urine sample 38, lung cancer
  absorbance (Results of absorbance analysis): 0.0194 and 0.01741 and 0.0185
[1]; urine sample 40, lung cancer
  absorbance (Results of absorbance analysis): 0.0572 and 0.03085 and 0.0469
[1]; urine sample 41, lung cancer
  absorbance (Results of absorbance analysis): 0.0138 and 0.0163 and 0.0156
[1]; urine sample 42, lung cancer
  absorbance (Results of absorbance analysis): 0.1543 and 0.1976 and 0.175
[1]; urine sample 43, lung cancer
  absorbance (Results of absorbance analysis): 0.0366
[2]; urine sample 1Z
  absorbance (Results of absorbance analysis): 0.00000
[2]; urine sample 2Z
  absorbance (Results of absorbance analysis): 0.00000
[2]; urine sample 3Z
  absorbance (Results of absorbance analysis): 0.00000
[2]; urine sample 4Z
  absorbance (Results of absorbance analysis): 0.00000
[2]; urine sample 5Z
  absorbance (Results of absorbance analysis): 0.00000
[2]; urine sample 6Z
  absorbance (Results of absorbance analysis): 0.00000
[2]; urine sample 7Z
  absorbance (Results of absorbance analysis): 0.00000
[2]; urine sample 8Z
  absorbance (Results of absorbance analysis): 0.00000
[2]; urine sample 9Z
  absorbance (Results of absorbance analysis): 0.00000
[2]; urine sample 10Z
  absorbance (Results of absorbance analysis): 0.00000
[2]; urine sample 11Z
  absorbance (Results of absorbance analysis): 0.00000
[2]; urine sample 12Z
  absorbance (Results of absorbance analysis): 0.00000
[2]; urine sample 13Z
  absorbance (Results of absorbance analysis): 0.00000
[2]; urine sample 14Z
  absorbance (Results of absorbance analysis): 0.00000
[2]; urine sample 15Z
  absorbance (Results of absorbance analysis): 0.00000
[2]; urine sample 16Z
  absorbance (Results of absorbance analysis): 0.00000
[2]; urine sample 17Z
  absorbance (Results of absorbance analysis): 0.00000
[2]; urine sample 18Z
  absorbance (Results of absorbance analysis): 0.00000
[2]; urine sample 19Z
  absorbance (Results of absorbance analysis): 0.00000
[2]; urine sample 20Z
  absorbance (Results of absorbance analysis): 0.00000
[2]; urine sample 21Z
  absorbance (Results of absorbance analysis): 0.00000
[2]; urine sample 22Z
  absorbance (Results of absorbance analysis): 0.00000
[2]; urine sample 23Z
  absorbance (Results of absorbance analysis): 0.00000
[2]; urine sample 24Z
  absorbance (Results of absorbance analysis): 0.00000
[2]; urine sample 25Z
  absorbance (Results of absorbance analysis): 0.00000
[2]; urine samples from healthy persons 1Z to 25Z
  increase in absorbance / hydrolysis: does not lead to an increase in absorbance
[3]; lung cancer urine (sample 1) vs other neoplastic disease (samples 2-9), FIG. 3, mean values
  selectivity of hydrolysis of the substrate: selectivity of substrate cleavage in the case of urine from patients with lung cancer
[3]; samples from patients with testicular, intestine, kidney, prostate, pancreatic, bile duct, lung, ovarian, and rectum cancer
  cleavage / increase in absorbance: is not subject to cleavage
